The source of these data is PubChem BioAssay (NCI).

“And” between values parts separate entries of the source, which are not always exact repeats. Identical values can stand only once.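 How tested: cells in 96-well plates exposed to compound for 48 hours at five concentrations. GI50 is the concentration that inhibits growth by half. TGI marks complete inhibition of growth.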

Among the test systems are MALME-3M melanoma; RXF 393 renal; SF-539 CNS; NCI/ADR-RES ovarian; HS 578T breast; SF-295 CNS; UACC-62 melanoma; IGROV1 ovarian; LOX IMVI melanoma; U251 CNS.
Assay in all cases: NCI-60 cell line screen, 48 h

`COc1ccc(/C=C(\C#N)n2nnc3ccccc32)cc1`: the GI50 is 0.418 µM in the assay with MALME-3M melanoma; 0.15 µM with RXF 393 renal; 0.252 µM with SF-539 CNS; 0.0604 µM in the assay with NCI/ADR-RES ovarian; 0.396 µM in the assay with HS 578T breast; 0.205 µM with SF-295 CNS. Besides, the GI50 in the assay on UACC-62 melanoma was 0.0893 µM; in the assay with IGROV1 ovarian, 0.158 µM; in the assay on LOX IMVI melanoma, 0.548 µM; in the assay with U251 CNS, 0.414 µM. Besides, the TGI in the assay with MALME-3M melanoma is above 71.2 µM; in the assay with RXF 393 renal it was 0.607 µM; in the assay on SF-539 CNS it was 0.869 µM; in the assay on NCI/ADR-RES ovarian, 28.2 µM; in the assay on HS 578T breast, above 100 µM; in the assay with SF-295 CNS, 6.66 µM. Besides, the TGI with UACC-62 melanoma was 19.7 µM; in the assay with IGROV1 ovarian it was 8.16 µM; with LOX IMVI melanoma, 6.72 µM; with U251 CNS, above 32.6 µM.

As for `O=C(Nc1ccc2[nH]c(=S)sc2c1)Nc1ccccc1F`, the GI50 in the assay on MALME-3M melanoma was 18.4 µM; in the assay with RXF 393 renal, 54.5 µM; with SF-539 CNS it was 29.6 µM; in the assay on NCI/ADR-RES ovarian it was 21.9 µM; in the assay with HS 578T breast, 37.6 µM; with SF-295 CNS it was 28.8 µM. Also, the GI50 in the assay on UACC-62 melanoma is 18.5 µM; in the assay on IGROV1 ovarian, 3.58 µM; in the assay with LOX IMVI melanoma it was 16.3 µM; in the assay with U251 CNS, 57.5 µM. Also, the TGI is 64.2 µM in the assay on MALME-3M melanoma; above 100 µM in the assay on RXF 393 renal; above 100 µM with SF-539 CNS; above 100 µM in the assay with NCI/ADR-RES ovarian; above 100 µM in the assay with HS 578T breast; above 100 µM in the assay with SF-295 CNS. Also, the TGI with UACC-62 melanoma, in the assay on IGROV1 ovarian, in the assay with LOX IMVI melanoma and with U251 CNS was above 100 µM in each case.

`C=C(C)[C@@H]1CC[C@]2(C)[C@H](CC=C3[C@@H]4[C@@H](C)[C@H](C)CC[C@]4(C(N)=O)CC[C@]32C)[C@@]1(C)CCC#N`: the GI50 is 5.69 µM in the assay with MALME-3M melanoma; 3.33 µM in the assay on RXF 393 renal; 4.79 µM in the assay on SF-539 CNS; 4 µM in the assay on NCI/ADR-RES ovarian; 11.6 µM in the assay on HS 578T breast; 4.44 µM in the assay on SF-295 CNS. Also, the GI50 in the assay with UACC-62 melanoma was 5.69 µM; with IGROV1 ovarian, 5.58 µM; in the assay on LOX IMVI melanoma it was 7.06 µM; in the assay on U251 CNS, 4.32 µM. For the same compound, the TGI with MALME-3M melanoma was 27.9 µM; in the assay on RXF 393 renal, 11.4 µM; in the assay on SF-539 CNS, 16.6 µM; with NCI/ADR-RES ovarian it was 17.2 µM; in the assay with HS 578T breast it was 88.8 µM; in the assay with SF-295 CNS it was above 100 µM. In addition, the TGI in the assay with UACC-62 melanoma is 29 µM; in the assay with IGROV1 ovarian, above 100 µM; in the assay on LOX IMVI melanoma, 20.1 µM; with U251 CNS, 18.3 µM.

`CC(C)c1c(O)ccc2c1CCC1C(C)(C)CCCC21C` (centres undefined): the TGI with MALME-3M melanoma was 35.6 µM; in the assay with RXF 393 renal, 29.3 µM; in the assay with SF-539 CNS, 34 µM; with NCI/ADR-RES ovarian, 31.2 µM; with HS 578T breast, 57.2 µM; in the assay with SF-295 CNS it was 32.5 µM. Further, the TGI in the assay with UACC-62 melanoma is 28.9 µM; with IGROV1 ovarian it was 30 µM; in the assay on LOX IMVI melanoma, 31.1 µM; in the assay on U251 CNS, 33.2 µM.

As to `COC(=O)C1CCCN1C(=O)[C@@H]1CCCN1C(=O)[C@H](Cc1c[nH]c2ccccc12)NC(=S)Nc1cc(C(F)(F)F)cc(C(F)(F)F)c1` (some centres undefined), the GI50 is 3.35 µM with MALME-3M melanoma; 1.78 µM with RXF 393 renal; 2.43 µM with SF-539 CNS; 3.85 µM in the assay on NCI/ADR-RES ovarian; 3.1 µM in the assay with HS 578T breast; 1.77 µM in the assay with SF-295 CNS. In addition, the GI50 was 1.7 µM with UACC-62 melanoma, 3.34 µM in the assay on IGROV1 ovarian, 1.91 µM in the assay on LOX IMVI melanoma and 1.67 µM in the assay on U251 CNS. For the same compound, the TGI worked out at 12.7 µM with MALME-3M melanoma; 4.4 µM in the assay with RXF 393 renal; 5.85 µM with SF-539 CNS; 22.1 µM in the assay with NCI/ADR-RES ovarian; 11.4 µM in the assay on HS 578T breast; 4.08 µM with SF-295 CNS. The TGI in the assay on UACC-62 melanoma is 4.08 µM; in the assay on IGROV1 ovarian, 10.9 µM; in the assay with LOX IMVI melanoma, 4.28 µM; with U251 CNS, 3.81 µM.

Regarding `OC(CNCC1CCCO1)Cn1c2ccc(Cl)cc2c2cc(Cl)ccc21` (centres undefined), the GI50 with MALME-3M melanoma was 1.93 µM; in the assay with RXF 393 renal it was 1.62 µM; with SF-539 CNS, 1.66 µM; in the assay with NCI/ADR-RES ovarian, 1.93 µM; in the assay on HS 578T breast, 2.14 µM; with SF-295 CNS, 1.78 µM. The GI50 with UACC-62 melanoma was 1.78 µM; in the assay with IGROV1 ovarian it was 2.05 µM; in the assay on LOX IMVI melanoma, 1.65 µM; with U251 CNS it was 1.65 µM. Moreover, the TGI in the assay with MALME-3M melanoma turned out to be 3.94 µM; with RXF 393 renal it was 3.51 µM; in the assay on SF-539 CNS, 3.13 µM; in the assay on NCI/ADR-RES ovarian it was 3.82 µM; with HS 578T breast it was 6.93 µM; in the assay with SF-295 CNS, 3.57 µM. In addition, the TGI with UACC-62 melanoma was 3.46 µM; in the assay with IGROV1 ovarian, 4.03 µM; with LOX IMVI melanoma, 3 µM; in the assay on U251 CNS, 3.05 µM.

For the compound `Oc1[nH]c2c(Br)cccc2c1C1=Nc2ccccc2/C1=N/OCCN1CCCC1`, the GI50 in the assay on MALME-3M melanoma is 1.16 µM; with RXF 393 renal it was 0.942 µM; with SF-539 CNS it was 0.557 µM; in the assay with NCI/ADR-RES ovarian it was 0.793 µM and 0.766 µM; in the assay with HS 578T breast, 1.2 µM; in the assay with SF-295 CNS, 0.638 µM. Further, the GI50 with UACC-62 melanoma is 0.973 µM; in the assay with IGROV1 ovarian, 0.469 µM; with LOX IMVI melanoma, 0.626 µM; with U251 CNS, 1.09 µM. For the same compound, the TGI stood at 4.84 µM in the assay with MALME-3M melanoma; 9.66 µM with RXF 393 renal; 2.05 µM with SF-539 CNS; 3 µM in the assay on HS 578T breast; 3.69 µM in the assay on SF-295 CNS; 2.45 µM with UACC-62 melanoma. For the same compound, the TGI in the assay on IGROV1 ovarian came to 2.98 µM; with LOX IMVI melanoma, 2.45 µM; in the assay on U251 CNS it was 2.77 µM.
